“Also recorded” adds a separate entry of the source. A value given as a limit tells only on which side of the number the result lay.

We go through two molecules from patent US10858305B2, “Perillyl alcohol-3-bromopyruvate conjugate and methods of treating cancer” (NeOnc Technologies, Inc., priority 2016, dated 2020).

The target in test [1] is T1, GAPDH (Oryctolagus cuniculus, UniProt P46406).
T1 construct: Purified GAPDH protein (30 μg, 1 μg/μl) from rabbit muscle (ScienCell Research Laboratories); purchased ScienCell Research Laboratories; host or cells: rabbit muscle
T1 sequence (P46406 whole entry): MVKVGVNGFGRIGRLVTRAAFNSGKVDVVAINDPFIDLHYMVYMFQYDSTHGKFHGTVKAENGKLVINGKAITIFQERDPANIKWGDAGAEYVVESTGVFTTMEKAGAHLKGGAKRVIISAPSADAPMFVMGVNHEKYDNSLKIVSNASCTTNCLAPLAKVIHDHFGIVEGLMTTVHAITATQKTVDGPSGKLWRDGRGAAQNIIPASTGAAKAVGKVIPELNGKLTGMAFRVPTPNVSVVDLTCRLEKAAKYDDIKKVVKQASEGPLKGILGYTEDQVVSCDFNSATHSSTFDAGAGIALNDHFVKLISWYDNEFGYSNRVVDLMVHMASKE
The test can be described thus: Mass spectrometry of purified GAPDH protein incubated with drug (cysteine modification). It counts as binding, rabbit. Particulars: 60 μM drug, 15 minutes. The procedure: Direct interaction of NEO218 with different targets was analyzed by LC/MS analysis. (A) Purified rabbit GAPDH protein was incubated with 3-BP or NEO218 for 15 minutes, followed by LC/MS analysis. GAPDH protein contains 4 cysteines (Cys) at the indicated positions, and all four were identified as being modified with a pyruvate moiety in the case of 3-BP, and a pyruvate-perillyl alcohol moiety in the case of NEO218 (indicated by pyr). (B) Extracted ion chromatogram (XIC) of the reaction products of NEO218 and GSH restricted to mass over charge (m/z) values between 528 and 529. […] Location and relative size of the peak at 529.204 corresponds to the ^13C isotope peak of the reaction product. (C) Reaction of NAC with NEO218 yielded several products shown in the ion map (top panel). The co-eluting twin isotope at m/z 539 and 541 distributed equally (insert in top panel) and was selected for further analysis, as shown in the two chromatograms in the bottom panels.
Thirty microgram of purified GAPDH protein was incubated in vitro with 60 μM 3-BP for 15 minutes at 37° C. Mass spectrometrical analysis was then used to determine whether 3-BP could directly bind to the amino acid sequence of the enzyme. […]

Test [2] concerns tumor cells (two cell lines, incl. MCF7/Dox). Nature of the test: Colony formation assay (CFA), 24 hours drug exposure (FIG. 5). Particulars: colonies after ten to fifteen days. In kind it is cell-based, human. The procedure: The effect of NEO218 on tumor cell survival and colony formation relative to 3-BP, POH and 3-BP+POH was evaluated via the colony formation assay (CFA). Six hundred cells per culture well were seeded and exposed to increasing concentrations of NEO218, 3-BP, a mix of 3-BP+POH, or POH alone. After 24 hours, all drugs were removed from cells and fresh culture medium was added. Ten to fifteen days later, the surviving cells had formed colonies of descendants, which were stained and counted.

Test [3] concerns the target GAPDH (Homo sapiens, UniProt P04406). Nature of the test: GAPDH activity assay, drugs added to cell lysates (cell-free). In kind it is biochemical. Further details: endogenous in cells; host or cells: MDA-MB-231 cell lysate. The conditions noted are these: for inhibition of GAPDH enzyme activity: cell lysates incubated with drug for 1 hour; for effect of NAC or GSH on drug-induced inhibition of GAPDH activity: cell lysates, 1 mM NAC or GSH. Here is the method: (A) HCT116 cells were treated with 40 μM 3-BP or NEO218 in the presence or absence of 1 mM NAC, 1 mM GSH, or 50 mM methyl-pyruvate (or sodium pyruvate, which produced similar outcomes). Cell viability was determined 24 hours later by MTT assay. (B) HCT116 cells were treated with 30 or 100 μM 3-BP or NEO218. After 30 minutes, cell lysates were prepared and analyzed for GAPDH activity. (C) Lysates from non-drug-treated MDA-MB-231 cells were mixed with 3-BP or NEO218 in the presence or absence of NAC or GSH at the concentrations mentioned in A. After 1 hour of incubation, GAPDH activity was determined. GAPDH activity in the absence of drug treatment was set at 100% (corresponding to 0.06 units/min×10^6 cells).
The capacity of NEO218 to inhibit the enzymatic function of GAPDH in a cell-free system was investigated. Cell lysates were incubated with NEO218 and 3-BP (individually) for 1 hour, and enzymatic activity of GAPDH (glyceraldehyde-3-phosphate dehydrogenase) was determined. Increasing concentrations of NEO218 and 3-BP were applied. Separately, 50 μM NEO218 and 3-BP, respectively, were applied together with 1 mM NAC or GSH. The enzymatic activity of GAPDH was determined with the use of a commercially available GAPDH activity assay kit.
Enzymatic activity of GAPDH in vitro was measured with the Colorimetric GAPDH Assay kit (ScienCell Research Laboratories, Carlsbad, Calif.). This assay is based on the oxidization of β-NADH to β-NAD in the presence of 3-phosphoglyceric acid, ATP and GAPDH. GAPDH activity is determined by assaying the rate of NADH oxidation, which is proportional to the reduction in absorbance at 340 nm over time (ΔA340 nm/min). One hundred thousand cells were lysed in 100 μL cell lysis buffer and incubated with the above components. Changes in absorbance over 10 minutes were calculated and normalized to untreated controls. Data are presented as percentage of controls. Two types of drug treatments were performed: in one approach, drugs were added to proliferating cells for 30 minutes under regular cell culture conditions; in the other approach, drugs were added to cell lysates for 1 hour at 4° C.

Sequence of GAPDH (Homo sapiens, UniProt P04406) (P04406 whole entry): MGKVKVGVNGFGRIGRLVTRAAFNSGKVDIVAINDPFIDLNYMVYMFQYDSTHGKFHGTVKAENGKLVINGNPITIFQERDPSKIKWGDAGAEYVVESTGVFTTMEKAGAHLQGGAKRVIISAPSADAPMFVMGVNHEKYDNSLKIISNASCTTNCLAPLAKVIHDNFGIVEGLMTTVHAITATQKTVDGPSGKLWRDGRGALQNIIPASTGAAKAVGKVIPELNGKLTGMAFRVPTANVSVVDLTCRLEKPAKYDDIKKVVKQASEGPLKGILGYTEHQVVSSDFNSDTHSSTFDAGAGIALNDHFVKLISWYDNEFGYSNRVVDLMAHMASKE

On to `O=C(O)C(=O)CBr` [3-BP, 3-bromopyruvate], for which the “cysteine residues of GAPDH modified” value on GAPDH [1] was “Cysteines at amino acid positions 245 and 282 turned out to be pyruvylated; also recorded: all 4 cysteines were altered by the addition of pyruvate”. Further, the “inhibition of colony formation, comparison” value in test [2] was “substantially less potent”. For the same molecule, at GAPDH [3], the “inhibition of GAPDH enzyme activity” value is recorded as “potent inhibition of GAPDH enzyme activity; also recorded: potently decreased enzymatic GAPDH activity” and the “effect of NAC or GSH on drug-induced inhibition of GAPDH activity” value is reported as “effectively prevented the drug-induced inhibition of GAPDH activity; also recorded: completely prevented”.
Regarding `C=C(C)[C@@H]1CC=C(COC(=O)C(=O)CBr)CC1` [NEO218, 3-bromo-2-oxo-propionic acid 4-isopropenyl-cyclohex-1-enylmethyl ester], the “cysteine residues of GAPDH modified” value on GAPDH [1] is recorded as “the same four residues revealed attachment of pyruvate-perillyl alcohol moieties”. Also, in test [2] (Homo sapiens, MCF7-DOX, read-out: IC50 (cell survival and colony formation)), the IC50 was under 10 µM. Besides, at GAPDH [3], the “inhibition of GAPDH enzyme activity” value is reported as “potent inhibition of GAPDH enzyme activity; also recorded: potently decreased enzymatic GAPDH activity” and the “effect of NAC or GSH on drug-induced inhibition of GAPDH activity” value was “effectively prevented the drug-induced inhibition of GAPDH activity; also recorded: completely prevented”.

As usually defined, the IC50 is the concentration that gives 50% inhibition.
